For this assay, the system named is artificial bacterial consortium containing approximately equal numbers of six bacterial strains. Nature of the assay: bacterial growth inhibition dose protocol in synthetic white water (O.D. 650 nm, 4 hours). In kind it is cell-based. To be noted: for Synergy Index / Synergy Index**: SI<1 synergism; for ppm BCDMH: BCDMH alone or in blend with NaOPP giving 50% inhibition; for ppm BIT: BIT alone or in blend with NaOPP giving 50% inhibition; for ppm BNS: BNS alone or in blend with NaOPP giving 50% inhibition; for ppm DBNPA: DBNPA alone or in blend with NaOPP giving 50% inhibition; for ppm Dithiol: Dithiol alone or in blend with NaOPP giving 50% inhibition. The method, then: The actives were evaluated in synthetic white water with pH values of 5.5 and 8.0. The materials were tested against an artificial bacterial consortium containing approximately equal numbers of six bacterial strains. […] Two of the strains were Kiebsiella pneumoia (ATCC 13883) and Pseudomonas aeruginosa (ATCC 15442). The other four strains were isolated from papermill systems and have been identified as Curtobacterium flaccumfaciens, Burkhlderia cepacia, Bacillus maroccanus, and Pseudomonas glethei. Each strain was inoculated at 37° C. overnight, then suspended in sterile saline. Equal volumes of each strain were then combined to prepare the consortium. The bacterial consortium was distributed into the wells of a microtiter plate in the presence or absence of various concentrations of the active materials. The microtiter plates were incubated at 37° C. Optical density (O.D.) readings at 650 nm were taken initially (t0) and after time 4 hours (t4) of incubation.
The raw data was converted to “bacterial growth inhibition percentages” according to the following formula: % Inhibition=[(a−b)÷a]·100 […]
a=(O.D. of control at tn)−(O.D. of control at t0) b=(O.D. of treatment at tn)−(O.D. of treatment at t0)
The inhibition values can be plotted versus dosage for each active and the particular blend. […] The synergism index (SI) was calculated by the equations described by F. C. Kull, P. C. Eisman, H. D. Sylwestrowicz, and R. L. Mayer (1961), Applied Microbiology 9, 538-541. The values are based on the amount needed to achieve a specified end point. […] Synergy Index (SI)=(QA÷Qa)+(QB÷Qb) […]
QA=quantity of compound A in mixture, producing the end point
Qa=quantity of compound A1 acting alone, producing the end point
QB=quantity of compound B in mixture, producing the end point
Qb=quantity of compound B1 acting alone, producing the end point
If SI is less than 1, synergism exists; if SI is greater than 1, antagonism exists, if SI is equal to 1, an additive effect exists.

[1] abbreviates: pH 5.5, BCDMH & NaOPP, end point 50% inhibition.
Where [2] appears, read: pH 8.0, BCDMH & NaOPP, end point 50% inhibition.
Where [3] appears, read: pH 5.5, BIT & NaOPP, end point 50% inhibition.
[4] abbreviates: pH 8.0, BIT & NaOPP, end point 50% inhibition.
Where [5] appears, read: pH 5.5, BNS & NaOPP, end point 50% inhibition.
[6] abbreviates: pH 8.0, BNS & NaOPP, end point 50% inhibition.
The mark [7] stands for this setting: pH 5.5, DBNPA & NaOPP, end point 50% inhibition.
[8] abbreviates: pH 8.0, DBNPA & NaOPP, end point 50% inhibition.
[9] abbreviates: pH 5.5, DIMTS & NaOPP, end point 50% inhibition.
Where [10] appears, read: pH 8.0, DIMTS & NaOPP, Calculated Using 40% Inhibition of Bacterial Growth.
Setting [11] is: pH 5.5, Dithiol & NaOPP, end point 50% inhibition.
Setting [12] is: pH 8.0, Dithiol & NaOPP, end point 50% inhibition.
[13] abbreviates: pH 5.5, NaOCl & NaOPP, Calculated Using 30% Inhibition of Bacterial Growth.
[14] abbreviates: pH 5.5, Sulfone & NaOPP, end point 50% inhibition.
Where [15] appears, read: pH 8.0, Sulfone & NaOPP, end point 50% inhibition.

In the case of `CC1(C)C(=O)N(Cl)C(=O)N1Br` [BCDMH, 1-Bromo-3-chloro-5,5-dimethylhydantoin], the “Synergy Index” value under setting [1] worked out at 1.00 and the “Synergy Index” value under setting [2] was 1.00. In addition, the “ppm BCDMH” value is, setting by setting: (pH 5.5, ppm active) 14.60 ppm; (pH 8.0, ppm active) 34.37 ppm.

Regarding `O=c1[nH]sc2ccccc12` [BIT, 1,2-Benzisothiazolin-3-one], the “Synergy Index” value came out at 1.00 under setting [3] and 1.00 under setting [4]. The “ppm BIT” value is recorded as 1.46 ppm (pH 5.5, ppm active) and 2.86 ppm (pH 8.0, ppm active).

In the case of `O=[N+]([O-])C(Br)=Cc1ccccc1` [BNS, Bromonitrostyrene], the “Synergy Index” value runs as follows: under setting [5], 1.00; under setting [6], 1.00. Besides, the “ppm BNS” value reads like this: (pH 5.5, ppm active) 1.19 ppm; (pH 8.0, ppm active) 3.08 ppm.

With `N#CC(Br)(Br)C(N)=O` [DBNPA, 2,2-Dibromo-3-nitrilopropionamide], the “Synergy Index” value is, setting by setting: under setting [7], 1.00; under setting [8], 1.00. For the same compound, the “ppm DBNPA” value reads like this: (pH 5.5, ppm active) 1.69 ppm; (pH 8.0, ppm active) 3.01 ppm.

Turning to `Cc1ccc(S(=O)(=O)C(I)I)cc1` [DIMTS, Diiodomethyl-p-tolylsulfone], the “Synergy Index” value under setting [9] is on record as 1.00. Further, the “ppm DIMTS” value is, setting by setting: (pH 5.5, DIMTS alone or in blend with NaOPP giving 50% inhibition, ppm active) 31.65 ppm; (pH 8.0, DIMTS alone or in blend with NaOPP producing the end point, footnote: 40% Inhibition of Bacterial Growth) 22.84 ppm. For the same compound, the “Synergy Index**” value under setting [10] is given as 1.00.

On to `O=c1ssc(Cl)c1Cl` [Dithiol, 4,5-Dichloro-1,2-dithiol-3-one], for which the “Synergy Index” value is, setting by setting: under setting [11], 1.00; under setting [12], 1.00. For the same compound, the “ppm Dithiol” value runs as follows: (pH 5.5, ppm active) 0.073 ppm; (pH 8.0, ppm active) 0.16 ppm.

`OCl` [NaOCl, Sodium Hypochlorite]: the “Synergy Index**” value under setting [13] is on record as 1.00. The “ppm NaOCl” value (pH 5.5, NaOCl alone or in blend with NaOPP producing the end point, footnote: 30% Inhibition of Bacterial Growth) stood at 55.27 ppm.

For the compound `[Na+].[O-]c1ccccc1-c1ccccc1` [NaOPP, Sodium orthophenylphenate], the “Synergy Index” value by setting is: under setting [1], 1.00; under setting [3], 1.00; under setting [5], 1.00; under setting [7], 1.00; under setting [9], 1.00; (pH 5.5, Dazomet & NaOPP, end point 50% inhibition) 1.00. The “Synergy Index” value under setting [11] is listed as 1.00; the “Synergy Index” value (pH 5.5, Iso & NaOPP, end point 50% Inhibition) came out at 1.00; the “Synergy Index” value under setting [14] amounted to 1.00; the “Synergy Index” value under setting [2] was 1.00; the “Synergy Index” value under setting [4] amounted to 1.00; the “Synergy Index” value under setting [6] is listed as 1.00. For the same compound, the “Synergy Index” value under setting [8] is on record as 1.00; the “Synergy Index” value (pH 8.0, Dazomet & NaOPP, end point 50% inhibition) was found to be 1.00; the “Synergy Index” value under setting [12] was determined as 1.00; the “Synergy Index” value (pH 8.0, Iso & NaOPP, end point 50% Inhibition) is 1.00; the “Synergy Index” value under setting [15] worked out at 1.00. In addition, the “Synergy Index**” value is recorded as 1.00 under setting [13] and 1.00 under setting [10]. In addition, the “ppm NaOPP” value is, setting by setting: (pH 5.5, NaOPP alone or in blend with BCDMH giving 50% inhibition, ppm active) 78.40 ppm; (pH 5.5, NaOPP alone or in blend with BIT giving 50% inhibition, ppm active) 84.96 ppm; (pH 5.5, NaOPP alone or in blend with BNS giving 50% inhibition, ppm active) 90.47 ppm; (pH 5.5, NaOPP alone or in blend with DBNPA giving 50% inhibition, ppm active) 88.38 ppm; (pH 5.5, NaOPP alone or in blend with DIMTS giving 50% inhibition, ppm active) 84.10 ppm; (pH 5.5, NaOPP alone or in blend with Iso giving 50% Inhibition, ppm active) 82.73 ppm. For the same compound, the “ppm NaOPP” value (pH 5.5, NaOPP alone or in blend with NaOCl producing the end point, footnote: 30% Inhibition of Bacterial Growth) stood at 54.92 ppm; the “ppm NaOPP” value (pH 5.5, NaOPP alone or in blend with Sulfone giving 50% inhibition, ppm active) was 56.78 ppm; the “ppm NaOPP” value (pH 8.0, NaOPP alone or in blend with BIT giving 50% inhibition, ppm active) was 116.41 ppm; the “ppm NaOPP” value (pH 8.0, NaOPP alone or in blend with BNS giving 50% inhibition, ppm active) is on record as 123.16 ppm; the “ppm NaOPP” value (pH 8.0, NaOPP alone or in blend with DBNPA giving 50% inhibition, ppm active) is given as 137.13 ppm; the “ppm NaOPP” value (pH 8.0, NaOPP alone or in blend with DIMTS producing the end point, footnote: 40% Inhibition of Bacterial Growth) was 97.74 ppm. Besides, the “ppm NaOPP” value by setting is: (pH 8.0, NaOPP alone or in blend with Dazomet giving 50% inhibition, ppm active) 158.32 ppm; (pH 8.0, NaOPP alone or in blend with Dithiol giving 50% inhibition, ppm active) 132.71 ppm; (pH 8.0, NaOPP alone or in blend with Iso giving 50% Inhibition, ppm active) 114.14 ppm; (pH 8.0, NaOPP alone or in blend with Sulfone giving 50% inhibition, ppm active) 67.8 ppm.

`O=S(=O)(C(Cl)(Cl)Cl)C(Cl)(Cl)Cl` [Sulfone, Bis(trichlormethyl)sulfone]: the “Synergy Index” value is, setting by setting: under setting [14], 1.00; under setting [15], 1.00. For the setting “pH 5.5, Sulfone alone or in blend with NaOPP giving 50% inhibition, ppm active”, the “ppm Sulfone” value was 1.154 ppm. Further, the “Ppm Sulfone” value (pH 8.0, Sulfone alone or in blend with NaOPP giving 50% inhibition, ppm active) is reported as 1.34 ppm.

Source of the values: patent US20070203126A1, “Synergistic Mixtures of O-Phenylphenol and Dazomet” (priority 2002, published 2007).
